# Laboratory results reported in article PMC5814837 (Pest Management Science, 2017).
# Molecular target: mitochondrial succinate dehydrogenase (SDH) (Zymoseptoria tritici, UniProt F9X9V6+F9XH52+O42772, A84V)
# Assay: biochemical
# Settings: IC50
row,Compound,IC50 [µM]
1,"Cn1cc(C(=O)Nc2ccc(F)cc2-c2ccc(Cl)c(Cl)c2)c(C(F)F)n1 [Bixafen, bixafen]",0.106 ± 0.017
2,"O=C(NCCc1ncc(C(F)(F)F)cc1Cl)c1ccccc1C(F)(F)F [Fluopyram, fluopyram]",14.8 ± 1.32
3,"Cc1cc(OC(C)C)ccc1C(=O)C(C)(C)NC(=O)c1sccc1C [Isofetamid, N‐[1,1‐dimethyl‐2‐(4‐isopropoxy‐o‐tolyl)‐2‐oxoethyl]‐3‐methylthiophene‐2‐carboxamide]",> 32
